Legend:
Test in all cases: relative viability (nuclei count vs DMSO), 5 days (fraction); higher = more cells survive
[1] = compound: COc1cccc2c1C(=O)c1c(O)c3c(c(O)c1C2=O)C[C@@](O)(C(=O)CO)C[C@@H]3O[C@H]1C[C@H](N)[C@H](O)[C@H](C)O1 [Doxorubicin] + C[C@]1(O)C[C@@H](c2nc(-c3ccc4ccc(-c5ccccc5)nc4c3)c3c(N)nccn32)C1 [Linsitinib] (partner 1 µM)
Procedure, shortened: (§1)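 Relative viability equals treated-well nuclei counts divided by vehicle-well nuclei counts. Counts came from 4× images of lung cancer cell lines grown in 1536-well plates for 5 days after pin-tool dosing on the day after seeding. Dosing used one drug alone or a fixed anchor-drug dose plus five library-drug doses (not always all listed) in √10 steps, and values are medians of duplicate plates.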

[2] = compound: COC1=C(C=C(C=C1)C2=CC3=NC=CN3C(=N2)NC4=C(C=CC=N4)C(=O)N)OC [BAY61-3606] + CC(=O)c1c(C)c2cnc(Nc3ccc(N4CCNCC4)cn3)nc2n(C2CCCC2)c1=O [Palbociclib] (partner 0.5 µM)
Procedure, shortened: as §1

[3] = compound: COc1cccc2c1C(=O)c1c(O)c3c(c(O)c1C2=O)C[C@@](O)(C(=O)CO)C[C@@H]3O[C@H]1C[C@H](N)[C@H](O)[C@H](C)O1 [Doxorubicin] + C[C@@H](Oc1cc(-c2cnn(C3CCNCC3)c2)cnc1N)c1c(Cl)ccc(F)c1Cl [Crizotinib] (partner 1 µM)
Procedure, shortened: as §1

[4] = compound: COC1=C(C=C(C=C1)C2=CC3=NC=CN3C(=N2)NC4=C(C=CC=N4)C(=O)N)OC [BAY61-3606] + CC1(C)CCC(c2ccc(Cl)cc2)=C(CN2CCN(c3ccc(C(=O)NS(=O)(=O)c4ccc(N[C@H](CCN5CCOCC5)CSc5ccccc5)c(S(=O)(=O)C(F)(F)F)c4)cc3)CC2)C1 [Navitoclax] (partner 0.5 µM)
Procedure, shortened: as §1

Cell Line	relative viability ([1]; first compound 0.001 µM)	relative viability ([1]; first compound 0.003162 µM)	relative viability ([1]; first compound 0.01 µM)	relative viability ([1]; first compound 0.03162 µM)	relative viability ([1]; first compound 0.1 µM)	relative viability ([2]; first compound 0.02 µM)	relative viability ([2]; first compound 0.06325 µM)	relative viability ([2]; first compound 0.2 µM)	relative viability ([2]; first compound 0.6325 µM)	relative viability ([2]; first compound 2 µM)	relative viability ([3]; first compound 0.001 µM)	relative viability ([3]; first compound 0.003162 µM)	relative viability ([3]; first compound 0.01 µM)	relative viability ([3]; first compound 0.03162 µM)	relative viability ([3]; first compound 0.1 µM)	relative viability ([4]; first compound 0.02 µM)	relative viability ([4]; first compound 0.06325 µM)	relative viability ([4]; first compound 0.2 µM)	relative viability ([4]; first compound 0.6325 µM)	relative viability ([4]; first compound 2 µM)
201T	1	0.979	0.983	1.06	1.01	0.346	0.349	0.341	0.397	0.366	1	1.07	1.05	1.05	1.04	1.22	1.2	1.23	1.21	1.3
A549	–	0.609	0.502	0.52	0.646	–	–	–	–	–	0.774	0.634	0.419	0.0759	0.0405	1.24	1.14	1.33	1.22	0.916
A-427	1.11	1.15	1.11	1.17	1.16	0.484	0.521	0.544	0.524	0.479	0.855	1.02	0.897	0.978	0.88	1.03	0.983	0.962	1.06	0.914
ABC-1	0.787	0.727	0.805	0.435	0.337	0.39	0.576	0.705	0.796	0.716	1.09	1.28	0.804	0.294	0.209	–	–	–	–	–
BEN	0.984	0.863	0.983	0.621	0.79	0.456	0.438	0.477	0.442	0.509	0.925	0.968	0.825	0.707	0.832	0.0718	0.0633	0.0644	0.0773	0.0651
CAL-12T	0.783	0.858	0.762	0.432	0.48	0.634	0.504	0.615	0.287	0.246	0.671	0.507	0.566	0.182	0.116	1.23	1.42	1.2	1.27	0.67
COR-L23	0.881	1.08	0.908	0.331	0.18	0.338	0.252	0.377	0.347	0.215	0.764	0.66	0.562	0.252	0.0977	1.06	1.1	1.02	1.11	0.813
COR-L 105	1.05	1.04	0.955	0.557	0.433	0.443	0.437	0.404	0.422	0.411	0.802	0.841	0.598	0.38	0.248	0.79	0.714	0.624	0.812	0.409
Calu-6	0.944	0.972	0.814	0.627	0.702	–	–	–	–	–	0.776	0.708	0.52	0.229	0.171	0.84	0.981	0.799	0.788	0.607
ChaGo-K-1	–	–	–	–	–	0.934	0.846	0.89	0.916	0.865	1.15	1.01	0.98	0.45	0.378	1.18	0.822	0.946	0.666	0.983
EBC-1	0.826	0.839	0.983	0.722	0.985	–	–	–	–	–	0.222	0.189	0.179	0.177	0.164	0.421	0.362	0.525	0.504	0.281
EKVX	0.996	0.922	0.957	1.11	0.879	0.405	0.45	0.385	0.496	0.45	0.865	1.02	0.792	1.02	0.948	1.04	1.04	0.884	0.959	0.938
EMC-BAC-2	0.797	0.864	0.84	0.854	0.776	0.516	0.515	0.513	0.587	0.547	0.793	0.824	0.748	0.674	0.692	1.21	1.21	1.16	1.24	1.19
EPLC-272H	0.936	1.45	1.4	1.18	1.13	0.322	0.338	0.373	0.352	0.318	1.37	0.965	1.01	0.806	0.861	1.1	1	0.934	1.19	1.19
H3255	0.906	1.07	0.908	0.9	0.938	0.3	0.307	0.301	0.334	0.307	0.917	0.88	0.804	0.608	0.45	0.555	0.54	0.502	0.494	0.609
HARA	0.974	1.03	0.922	0.798	1.04	0.262	0.23	0.268	0.243	0.306	1.04	1.04	1.03	1.01	0.959	1.2	1.12	1.16	1.1	1.02
HCC-15	0.878	0.842	0.927	0.795	0.725	0.803	0.673	0.708	0.768	0.601	0.733	0.817	0.767	0.551	0.534	0.796	0.703	0.691	0.702	0.683
HCC-44	0.686	0.667	0.621	0.69	0.753	0.959	0.941	0.924	0.968	1.13	0.868	0.915	0.824	0.81	0.785	0.935	0.903	1.01	1.13	0.816
HCC-78	0.539	0.454	0.493	0.491	0.47	0.438	0.431	0.486	0.44	0.522	0.356	0.332	0.395	0.352	0.28	0.915	0.652	0.905	0.802	0.801
HCC-366	–	0.392	0.706	0.52	0.512	0.44	0.46	0.324	0.326	0.255	–	0.697	0.509	0.236	0.333	1.09	1.05	0.87	0.999	0.891

Cell Line	relative viability ([1]; first compound 0.001 µM)	relative viability ([1]; first compound 0.003162 µM)	relative viability ([1]; first compound 0.01 µM)	relative viability ([1]; first compound 0.03162 µM)	relative viability ([1]; first compound 0.1 µM)	relative viability ([2]; first compound 0.02 µM)	relative viability ([2]; first compound 0.06325 µM)	relative viability ([2]; first compound 0.2 µM)	relative viability ([2]; first compound 0.6325 µM)	relative viability ([2]; first compound 2 µM)	relative viability ([3]; first compound 0.001 µM)	relative viability ([3]; first compound 0.003162 µM)	relative viability ([3]; first compound 0.01 µM)	relative viability ([3]; first compound 0.03162 µM)	relative viability ([3]; first compound 0.1 µM)	relative viability ([4]; first compound 0.02 µM)	relative viability ([4]; first compound 0.06325 µM)	relative viability ([4]; first compound 0.2 µM)	relative viability ([4]; first compound 0.6325 µM)	relative viability ([4]; first compound 2 µM)
HCC-827	0.922	0.965	0.969	0.921	0.921	0.514	0.456	0.467	0.484	0.234	0.982	0.993	0.913	0.955	0.908	1	0.998	1.06	1.08	1.02
HOP-62	0.954	1.04	1.11	1.17	1.04	–	0.465	0.459	0.348	0.346	1.04	1.02	0.956	0.901	1.01	0.981	1.08	0.981	1.08	0.676
IA-LM	0.519	0.706	0.575	0.573	0.74	–	–	–	–	–	0.604	0.914	0.564	0.376	0.113	0.812	–	0.827	0.793	0.725
LCLC-103H	0.935	1.17	1.06	1.17	1.14	0.473	0.508	0.449	0.462	0.481	1.07	1.06	1.03	1.06	1.19	–	–	–	–	–
NCI-H358	0.756	0.896	0.529	0.215	0.176	0.123	0.143	0.136	0.125	0.101	0.728	0.543	0.441	0.202	0.0991	–	–	–	–	–
NCI-H522	–	–	–	–	–	0.938	0.823	1.23	0.982	0.704	–	–	–	–	–	–	–	–	–	–
NCI-H596	1.01	1.12	1.09	1.01	0.992	–	–	–	–	–	0.984	1.13	0.916	0.91	0.933	0.942	1.04	1.09	1.13	0.712
NCI-H650	1.01	0.753	0.949	0.709	0.411	0.34	0.337	0.371	0.365	0.306	0.878	0.657	0.562	0.568	0.534	–	–	–	–	–
NCI-H661	0.641	0.636	0.551	0.484	0.547	0.408	0.378	0.413	0.42	0.477	0.971	1.21	1.08	1.02	0.993	–	–	–	–	–
NCI-H1299	0.949	0.942	1.03	0.943	0.999	–	–	–	–	–	0.952	0.981	0.939	0.874	0.49	1.05	1.06	1.05	1.07	1.05
NCI-H1395	1.03	1.09	1.02	1.11	0.92	0.702	0.598	0.608	0.682	0.59	–	–	–	–	–	1.26	1.04	1.49	1.35	0.966
NCI-H1563	1.07	0.935	0.898	0.634	0.587	–	–	–	–	–	0.826	0.728	0.584	0.522	0.447	–	–	–	–	–
NCI-H1648	–	–	–	–	–	0.251	0.259	0.265	–	0.276	–	–	–	–	–	–	–	–	–	–
NCI-H1650	–	–	–	–	–	0.316	0.291	0.37	0.413	0.298	0.925	0.903	0.283	0.181	0.13	1.21	1.19	1.16	1.27	0.751
NCI-H1703	0.481	0.676	0.695	0.64	0.474	–	–	–	–	–	0.578	0.789	0.365	0.179	0.0887	1.47	0.859	0.954	1.08	0.475
NCI-H1793	–	0.813	0.848	0.579	0.911	0.27	0.283	0.337	0.335	0.474	–	–	–	–	–	0.547	0.578	0.471	0.459	0.249
NCI-H2170	–	–	–	–	–	0.338	0.404	0.425	0.412	0.306	1.25	1.46	1.23	1.03	1.32	0.618	0.607	0.572	0.517	0.259
NCI-H2342	–	–	–	–	–	0.469	0.48	0.517	0.602	0.63	–	–	–	–	–	–	–	–	–	–
SW 900	–	–	–	–	–	0.518	–	–	0.566	0.434	–	–	–	–	–	–	–	–	–	–

Reference: the supplement of paper PMC10307832
